Measured values from ChEMBL document CHEMBL3244261, “3-hydroxyisoxazole-5-hydroxamic acid” (1977).
Activity calls are given as the source filed them. The rule behind the calls is not given here.

How the values were obtained:
L1210 = assay: Antitumor activity against mouse L1210 cells allografted in mouse at 100 mg/kg; type: functional, organism-based; design: dose 100 mg/kg
P388 = assay: Antitumor activity against mouse P388 cells allografted in mouse assessed as tumor growth inhibition at 100 mg/kg relative to control; type: functional

SMILES | Activity (L1210) | T/C (P388)
O=C(NO)c1cc(O)no1 | inactive | 
O=C(/C=C(\Cl)C(=O)NO)NO | inactive | 154%
